Measurements published in publication doi:10.1101/2022.05.31.494145v5 (biorxiv, 2024).

How the values were obtained:
CHIKV nsP1 = target: T1, CHIKV nsP1 (Chikungunya virus strain S27-African prototype, UniProt Q8JUX6); assay: tryptophan fluorescence quenching; format: binding
T1 sequence (Q8JUX6 1-535): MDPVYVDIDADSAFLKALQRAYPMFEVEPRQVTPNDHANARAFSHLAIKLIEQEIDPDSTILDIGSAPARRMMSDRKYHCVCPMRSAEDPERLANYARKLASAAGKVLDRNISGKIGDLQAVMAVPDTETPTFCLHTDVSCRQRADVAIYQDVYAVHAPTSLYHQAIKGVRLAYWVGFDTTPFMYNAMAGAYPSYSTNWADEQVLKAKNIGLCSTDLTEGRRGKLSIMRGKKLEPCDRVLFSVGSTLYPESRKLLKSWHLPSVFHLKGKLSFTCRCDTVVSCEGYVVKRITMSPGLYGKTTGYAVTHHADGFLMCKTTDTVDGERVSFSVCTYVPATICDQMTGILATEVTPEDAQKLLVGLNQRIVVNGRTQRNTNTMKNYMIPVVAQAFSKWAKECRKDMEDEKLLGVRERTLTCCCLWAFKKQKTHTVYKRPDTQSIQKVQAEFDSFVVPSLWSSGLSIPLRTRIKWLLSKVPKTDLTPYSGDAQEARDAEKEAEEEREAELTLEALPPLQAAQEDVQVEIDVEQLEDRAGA

DENV 3 NS5 MTase = target: T2, DENV 3 NS5 MTase (dengue virus type 3, UniProt A9LID6); assay: tryptophan fluorescence quenching; format: binding
T2 sequence (A9LID6 2491-2755 limits assumed): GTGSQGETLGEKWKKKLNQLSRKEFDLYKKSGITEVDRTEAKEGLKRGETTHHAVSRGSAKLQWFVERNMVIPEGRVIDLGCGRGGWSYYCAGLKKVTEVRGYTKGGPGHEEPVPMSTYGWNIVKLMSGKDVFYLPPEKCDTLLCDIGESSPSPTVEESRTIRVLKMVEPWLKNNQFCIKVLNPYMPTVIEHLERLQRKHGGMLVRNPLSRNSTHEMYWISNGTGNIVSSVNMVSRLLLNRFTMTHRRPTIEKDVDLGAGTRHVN

Compound `C[S+](CC[C@H](N)C(=O)O)C[C@H]1O[C@@H](n2cnc3c(N)ncnc32)[C@H](O)[C@@H]1O` (some centres unmarked) [SAM] has a Kd (CHIKV nsP1) of 10.9 ± 5.15 µM and a Kd (DENV 3 NS5 MTase) of 6.67 ± 2.57 µM.

`O=c1c(O)c(-c2ccc(O)cc2)oc2c(O)c(O)cc(O)c12` [HC, herbacetin] was tested, and the Kd (CHIKV nsP1) was 6.52 ± 0.55 µM and the Kd (DENV 3 NS5 MTase) was 13.3 ± 2.69 µM.

In the case of `O=C(/C=C/c1ccc(O)c(O)c1)OCCc1ccccc1` [CAPE, caffeic acid phenethyl ester], the Kd (CHIKV nsP1) is reported as 30.6 ± 5.33 µM and the Kd (DENV 3 NS5 MTase) is reported as 37.9 ± 6.32 µM.

For `Nc1nc2c(ncn2[C@@H]2O[C@H](COP(=O)(O)OP(=O)(O)OP(=O)(O)O)[C@@H](O)[C@H]2O)c(=O)[nH]1` [GTP], the Kd (CHIKV nsP1) was 169 ± 21.3 µM and the Kd (DENV 3 NS5 MTase) was 3.03 ± 1 µM.
